The values below come from DBAASP.

Molecules are shown by their SMILES. ≈ marks a conversion by molar mass, not a printed value.

Some test systems named below: Escherichia coli K-12; Escherichia coli BL21; Enterobacter cloacae; Acinetobacter baumannii; Staphylococcus aureus MR; Klebsiella pneumoniae; Pasteurella multocida; Staphylococcus aureus; Bibersteinia trehalosi; Escherichia coli JJ2489; Escherichia coli J2210; Escherichia coli BW25113; Escherichia coli MC1041; Escherichia coli JW0013.
Holding throughout (assay): ≥ marks a high value that may be exact or a test limit, other limits are often not marked, values filed in µg/mL are converted to µM
The subject of experiment [1] is Staphylococcus aureus JE2.
Experiment [2] relates to Streptococcus pyogenes DMST 17020.
Experiment [3] has as its system Staphylococcus epidermidis ATCC 12228.
The subject of experiment [4] is Lacticaseibacillus rhamnosus 7469.
The subject of experiment [5] is Candida parapsilosis CGMCC 2.3989.
Experiment [6] deals with Lactiplantibacillus plantarum 8014.
Experiment [7] relates to Staphylococcus aureus ATCC 29213.
Experiment [8] concerns Candida albicans CGMCC 2.2086.
For experiment [9], the system named is Candida tropicalis CGMCC 2.1975.
Experiment [10] has as its system Staphylococcus aureus ATCC 25923.
Experiment [11] has as its system Escherichia coli ATCC 25922.
Experiment [12] concerns Escherichia coli KpC+001812446.
Experiment [13] has as its system Pseudomonas aeruginosa PAO1.
Experiment [14] relates to Klebsiella pneumoniae ATCC 13883.
Experiment [15] relates to Pseudomonas aeruginosa PA14.
For experiment [16], the system named is Staphylococcus aureus ATCC 12600.
Experiment [17] relates to Klebsiella pneumoniae KpC+001825971.
Experiment [18] deals with Mannheimia haemolytica Serovar 6.
Experiment [19] relates to Salmonella enterica subsp. arizonae.
Experiment [20] deals with Corynebacterium pseudotuberculosis ATCC 19410.
The subject of experiment [21] is Mannheimia haemolytica Serovar 1.
Experiment [22] concerns Escherichia coli JW0368 ΔsbmA.
Experiment [23] concerns Salmonella enterica subsp. enterica serovar Enteritidis MH91989.
Experiment [24] concerns Escherichia coli JW2778 ΔygdD.
Experiment [25] concerns Salmonella typhimurium SL1344.

Regarding `CC[C@H](C)[C@H](NC(=O)[C@@H](NC(=O)[C@H](CO)NC(=O)[C@H](C)NC(=O)[C@@H](NC(=O)[C@H](CCCCN)NC(=O)[C@H](CCCCN)NC(=O)[C@@H](NC(=O)[C@@H](NC(=O)[C@H](CC(=O)O)NC(=O)[C@H](Cc1ccccc1)NC(=O)[C@H](CC(C)C)NC(=O)CNC(C)=O)C(C)C)[C@@H](C)CC)C(C)C)C(C)C)C(=O)NCC(=O)NCC(=O)N[C@@H](CC(C)C)C(=O)O` [GLFDVIKKVASVIGGL], the MIC (in the experiment on Escherichia coli K-12; in experiment [1]) was no less than 158 µM throughout.
As to `CSCC[C@H](NC(=O)[C@H](CS)NC(=O)[C@H](CC(C)C)NC(=O)[C@@H](NC(=O)[C@@H](N)Cc1cnc[nH]1)[C@@H](C)O)C(=O)N[C@@H](CC(=O)O)C(=O)NCC(=O)NCC(=O)N[C@@H](C)C(=O)N[C@H](C(=O)N[C@@H](Cc1ccc(O)cc1)C(=O)O)[C@@H](C)O` [HTLCMDGGATY], the MIC (as a rule, the least concentration at which growth counts as inhibited) in experiment [2] is no less than 50 µM.
In the case of `CSCC[C@H](NC(=O)[C@H](CS)NC(=O)[C@H](CC(C)C)NC(=O)[C@@H](NC(=O)[C@@H](N)Cc1cnc[nH]1)[C@@H](C)O)C(=O)NCC(=O)N[C@@H](CCCCN)C(=O)N[C@@H](C)C(=O)N[C@H](C(=O)N[C@@H](Cc1ccc(O)cc1)C(=O)O)[C@@H](C)O` [HTLCMGKATY], the results for the MIC in [2] and in experiment [3] were no less than 250 µM and 250 µM (≈ 281 µg/mL), respectively.
`CC[C@H](C)[C@H](N)C(=O)N[C@@H](Cc1cnc[nH]1)C(=O)N[C@@H](Cc1cnc[nH]1)C(=O)N[C@H](C(=O)N[C@@H](Cc1cnc[nH]1)C(=O)N[C@@H](Cc1cnc[nH]1)C(=O)N[C@@H](Cc1cnc[nH]1)C(=O)N[C@H](C(=O)N[C@@H](Cc1cnc[nH]1)C(=O)N[C@@H](Cc1cnc[nH]1)C(=O)N[C@H](C(=O)N[C@@H](Cc1cnc[nH]1)C(=O)N[C@@H](Cc1cnc[nH]1)C(=O)N[C@@H](Cc1cnc[nH]1)C(=O)N[C@H](C(=O)N[C@@H](Cc1cnc[nH]1)C(=O)N[C@@H](Cc1cnc[nH]1)C(=O)N[C@H](C(=O)N[C@@H](Cc1cnc[nH]1)C(=O)N[C@@H](Cc1cnc[nH]1)C(=O)N[C@@H](Cc1cnc[nH]1)C(N)=O)[C@@H](C)CC)[C@@H](C)CC)[C@@H](C)CC)[C@@H](C)CC)[C@@H](C)CC` [IHHIHHHIHHIHHHIHHIHHH]: the MIC is no less than 64 µM in experiment [4]; 1 µM (≈ 2.75 µg/mL) in experiment [5]; greater than 64 µM in [3]; no less than 64 µM in [6]; greater than 64 µM in experiment [7]; 1 µM (≈ 2.75 µg/mL) in experiment [8]. Moreover, the MIC is 0.5 µM (≈ 1.38 µg/mL) in experiment [9] and greater than 64 µM in experiment [10].
As for `CC[C@H](C)[C@H](NC(=O)[C@H](CCCCN)NC(=O)[C@H](CCCCN)NC(=O)[C@@H](NC(=O)[C@H](CCCCN)NC(=O)[C@H](C)NC(=O)[C@H](C)NC(=O)[C@H](CC(C)C)NC(=O)[C@H](CCCN=C(N)N)NC(=O)[C@H](CCCCN)NC(=O)[C@H](CC(C)C)NC(=O)[C@@H](NC(=O)[C@@H](N)CCCCN)[C@@H](C)CC)[C@@H](C)CC)C(=O)N[C@@H](CC(C)C)C(N)=O` [KILKRLAAKIKKIL], the minimal inhibitory concentration (MIC) against Escherichia coli BL21 is 2 µM (≈ 3.27 µg/mL); in [11] it was 4 µM (≈ 6.54 µg/mL); against Enterobacter cloacae, no less than 32 µM; in [12] it was 8 µM (≈ 13.1 µg/mL); in experiment [13], 4 µM (≈ 6.54 µg/mL); in experiment [14], 8 µM (≈ 13.1 µg/mL). Also, the MIC in experiment [15] was 4 µM (≈ 6.54 µg/mL); against Acinetobacter baumannii it was no less than 32 µM; with Staphylococcus aureus MR, no less than 32 µM; in experiment [16] it was 4 µM (≈ 6.54 µg/mL); in [17], no less than 32 µM; in [10], greater than 32 µM.
As to `CC[C@H](C)[C@H](NC(=O)[C@H](CCCN=C(N)N)NC(=O)[C@@H](NC(=O)[C@@H](NC(=O)[C@H](CCCN=C(N)N)NC(=O)[C@H](CC(C)C)NC(=O)[C@@H](NC(=O)[C@@H](NC(=O)[C@@H]1CCCN1C(=O)CNC(=O)[C@H](Cc1ccc(O)cc1)NC(=O)[C@H](CCCCN)NC(=O)[C@H](CCCCN)NC(=O)[C@@H](NC(=O)[C@@H](NC(=O)[C@H](Cc1cnc[nH]1)NC(=O)[C@@H](NC(=O)[C@@H](NC(=O)[C@H](CCCCN)NC(=O)[C@H](CCCN=C(N)N)NC(=O)[C@@H](NC(=O)[C@@H](NC(=O)[C@H](CCCN=C(N)N)NC(=O)[C@H](CCCN=C(N)N)NC(=O)[C@H](CC(C)C)NC(=O)[C@H](CC(N)=O)NC(=O)[C@@H](N)CCCCN)[C@@H](C)CC)[C@@H](C)CC)[C@@H](C)CC)[C@@H](C)CC)[C@@H](C)CC)[C@@H](C)CC)[C@@H](C)O)[C@@H](C)CC)[C@@H](C)CC)[C@@H](C)CC)C(=O)N[C@H](C(=O)NCC(N)=O)[C@@H](C)CC` [KNLRRIIRKIIHIIKKYGPTILRIIRIIG], the MIC in [18] worked out at 0.598 µM (≈ 2.1 µg/mL); in [19], 1.91 µM (≈ 6.7 µg/mL); in [20], 5.7 µM (≈ 20 µg/mL); in the experiment with Klebsiella pneumoniae, 0.37 µM (≈ 1.3 µg/mL); in experiment [13] it was 1.2 µM (≈ 4.2 µg/mL); with Pasteurella multocida it was 2.37 µM (≈ 8.3 µg/mL). Further, the figures for the MIC (with Staphylococcus aureus; in [21]; against Bibersteinia trehalosi) were 1.42 µM (≈ 5 µg/mL), 1.08 µM (≈ 3.8 µg/mL) and 2.85 µM (≈ 10 µg/mL), respectively.
Regarding `CC[C@H](C)[C@H](NC(=O)[C@H](CCCN=C(N)N)NC(=O)[C@@H](N)CCCN=C(N)N)C(=O)N[C@@H](CCCN=C(N)N)C(=O)N[C@@H](CCCCN)C(=O)N[C@@H](CCCN=C(N)N)C(=O)N1CCC[C@H]1C(=O)N1CCC[C@H]1C(=O)N[C@@H](CCCN=C(N)N)C(=O)N[C@@H](CC(C)C)C(=O)N1CCC[C@H]1C(=O)N[C@@H](CCCN=C(N)N)C(=O)N1CCC[C@H]1C(=O)N[C@@H](CCCN=C(N)N)C(=O)N1CCC[C@H]1C(=O)N[C@@H](CCCCN)C(=O)O` [RRIRKRPPRLPRPRPK], the MIC turned out to be 0.06 µM (≈ 0.125 µg/mL) in experiment [22]; 0.12 µM (≈ 0.25 µg/mL) in experiment [23]; 0.12 µM (≈ 0.25 µg/mL) with Escherichia coli JJ2489; 0.157 µM (≈ 0.326 µg/mL) with Escherichia coli J2210; 0.12 µM (≈ 0.25 µg/mL) in experiment [24]; 0.12 µM (≈ 0.25 µg/mL) in [25]. In addition, the figures for the MIC against Escherichia coli BW25113, in the experiment with Escherichia coli MC1041 and with Escherichia coli JW0013 were 0.078 µM (≈ 0.162 µg/mL), 0.06 µM (≈ 0.125 µg/mL) and 0.06 µM (≈ 0.125 µg/mL), respectively.
